Starred links: 1 amine or outer side, 2 acyl side, 3 side chain; linkers in the order of their positions; H or OH if unused. Positions of bridges follow the written chain, without caps; N, C: chain ends. Non-standard residues stand in square brackets, D forms with d. Residues, ends and D or L forms follow the SMILES beside them. *: point of attachment. hPhe(3-Cl-4-CF3) = N[C@@H](CCc1ccc(C(F)(F)F)c(Cl)c1)C(=O)O; X12 = CN([C@@H](Cc1ccc(C(F)(F)F)nc1)C(=O)[*:2])[*:1]; X82 = O=C([C@H](Cc1cccc(OC(F)(F)F)c1)N[*:1])[*:2]; Phe(3,5-Cl2) = N[C@@H](Cc1cc(Cl)cc(Cl)c1)C(=O)O; X17 = Cc1cncc(C[C@@H](C(=O)[*:2])N(C)[*:1])c1; NMePhe(4-Cl) = CN[C@@H](Cc1ccc(Cl)cc1)C(=O)O; NMePhe(4-Me) = CN[C@@H](Cc1ccc(C)cc1)C(=O)O; hPhe(4-Cl) = N[C@@H](CCc1ccc(Cl)cc1)C(=O)O; NMeGly(cPent) = CN[C@H](C(=O)O)C1CCCC1; Phe(2-OMe) = COc1ccccc1C[C@H](N)C(=O)O; Phe(3-I) = N[C@@H](Cc1cccc(I)c1)C(=O)O; Phe(3-Me) = Cc1cccc(C[C@H](N)C(=O)O)c1; NMe3Pal = CN[C@@H](Cc1cccnc1)C(=O)O; NMeGly(cBu) = CN[C@H](C(=O)O)C1CCC1; NMeCha = CN[C@@H](CC1CCCCC1)C(=O)O; NMeChg = CN[C@H](C(=O)O)C1CCCCC1; NMeF = CN[C@@H](Cc1ccccc1)C(=O)O; NMeT = CN[C@H](C(=O)O)[C@@H](C)O; hPhe = N[C@@H](CCc1ccccc1)C(=O)O; N(CH2CH2)2CF2 = FC1(F)CCN(*)CC1; NMeD = CN[C@@H](CC(=O)O)C(=O)O; NMeL = CN[C@@H](CC(C)C)C(=O)O; Cba = N[C@@H](CC1CCC1)C(=O)O; NMeV = CN[C@H](C(=O)O)C(C)C; d(β3hA) = C[C@@H](N)CC(=O)O; NMeA = CN[C@@H](C)C(=O)O; NMeAib = CNC(C)(C)C(=O)O; Nle = CCCC[C@H](N)C(=O)O; Piperidide = C1CCN(*)CC1; Pyrrolidide = C1CCN(*)C1; Ac5c = NC1(C(=O)O)CCCC1; Aze = O=C(O)[C@@H]1CCN1; Thp = NC1(C(=O)O)CCOCC1; Abu = CC[C@H](N)C(=O)O; Ac3c = NC1(C(=O)O)CC1; Aib = CC(C)(N)C(=O)O; Sar = CNCC(=O)O
Target: T1, Kras and SOS1 (biotin-tagged human Kras loaded with GDP, His-tagged human SOS1) (Homo sapiens, UniProt P01116, G12D)
T1 construct: made in house; host or cells: E. coli (stated for Kras only)
T1 sequence (P01116 1-188 isoform P01116-2 G12D): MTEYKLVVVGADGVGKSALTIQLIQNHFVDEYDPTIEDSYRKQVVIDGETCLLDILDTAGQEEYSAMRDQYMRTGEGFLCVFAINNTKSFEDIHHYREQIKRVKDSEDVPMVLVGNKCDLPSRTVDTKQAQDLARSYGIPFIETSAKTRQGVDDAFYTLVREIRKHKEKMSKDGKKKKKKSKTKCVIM
Assay: Protein-protein interaction inhibition between Kras and SOS1 (KrasGl2D-SOS PPI) using AlphaScreen
Assay type: binding
Conditions: AlphaScreen; biotin-tagged human Kras loaded with GDP, His-tagged human SOS1; read-out: KRAS G12D-SOS PPI IC50
Summary of the method: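 Kras was produced in E. coli, purified, then loaded with GDP. It was paired via streptavidin acceptor beads with His-SOS1 held on nickel donor beads, and proximity signal at 520-620 nm was read after 680 nm illumination.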

Compound | IC50
CC[C@H](C)[C@@H]1NC(=O)[C@H](CC(C)C)N(C)C(=O)C[C@@H](C(=O)N2CCCCC2)N(C)C(=O)[C@H](C2CCCCC2)N(C)C(=O)C2(CCCC2)NC(=O)[C@@H]2CCCN2C(=O)[C@H](CCc2ccc(C(F)(F)F)c(Cl)c2)NC(=O)CN(C)C(=O)[C@H]([C@@H](C)O)N(C)C(=O)CN(C)C(=O)CN(C)C1=O [Compound 427] ([NMeL]I[Sar][Sar][NMeT][Sar][hPhe(3-Cl-4-CF3)]P[Ac5c][NMeChg][NMeD]-Piperidide; lactam N-11) | 0.71 nM
CC[C@H](C)[C@@H]1NC(=O)[C@H](C)N(C)C(=O)C[C@@H](C)NC(=O)[C@H](C2CCCC2)N(C)C(=O)C2(CCCC2)NC(=O)[C@@H]2CCCN2C(=O)[C@H](CCc2ccc(C(F)(F)F)c(Cl)c2)NC(=O)CN(C)C(=O)[C@H](CC(C)C)N(C)C(=O)[C@@H]2CCCN2C(=O)CN(C)C1=O [Compound 429] (cyclo([Ac5c][NMeGly(cPent)][d(β3hA)][NMeA]I[Sar]P[NMeL][Sar][hPhe(3-Cl-4-CF3)]P)) | 99 nM
CCCC[C@@H]1NC(=O)[C@H](Cc2cc(Cl)cc(Cl)c2)NC(=O)CN(C)C(=O)[C@H](Cc2ccc(Cl)cc2)N(C)C(=O)CN(C)C(=O)CN(C)C(=O)[C@H]([C@@H](C)CC)NC(=O)[C@H](CC(C)C)N(C)C(=O)C[C@@H](C(=O)N2CCCCC2)N(C)C(=O)[C@H](CC(C)C)NC(=O)C(C)(C)N(C)C1=O [Compound 431] ([NMeL]I[Sar][Sar][NMePhe(4-Cl)][Sar][Phe(3,5-Cl2)][Nle][NMeAib]L[NMeD]-Piperidide; lactam N-11) | 250 nM
CC[C@H](C)[C@@H]1NC(=O)[C@H](C)N(C)C(=O)C[C@@H](C(=O)N2CCCCC2)N(C)C(=O)[C@H](C2CCCCC2)N(C)C(=O)C2(CCCC2)NC(=O)[C@H](Cc2cccnc2)N(C)C(=O)[C@H](CCc2ccc(C(F)(F)F)c(Cl)c2)NC(=O)CN(C)C(=O)[C@H](CC2CCCCC2)N(C)C(=O)[C@@H]2CCCN2C(=O)CN(C)C1=O [Compound 433] ([NMeA]I[Sar]P[NMeCha][Sar][hPhe(3-Cl-4-CF3)][NMe3Pal][Ac5c][NMeChg][NMeD]-Piperidide; lactam N-11) | 2.2 nM
CC[C@H](C)[C@@H]1NC(=O)[C@H](CC(C)C)N(C)C(=O)C[C@@H](C(=O)N2CCCCC2)N(C)C(=O)[C@H](CC(C)C)NC(=O)C(C)(C)N(C)C(=O)[C@H](CCc2ccccc2)NC(=O)[C@H](Cc2cccc(I)c2)NC(=O)CN(C)C(=O)[C@H](Cc2ccc(C)cc2)N(C)C(=O)[C@@H]2CCN2C(=O)CN(C)C1=O [Compound 442] ([NMeL]I[Sar][Aze][NMePhe(4-Me)][Sar][Phe(3-I)][hPhe][NMeAib]L[NMeD]-Piperidide; lactam N-11) | 70 nM
CC[C@H](C)[C@@H]1NC(=O)[C@H](CC(C)C)N(C)C(=O)C[C@@H](C(=O)N2CCCCC2)N(C)C(=O)[C@H](C(C)C)N(C)C(=O)[C@H](C)NC(=O)[C@H](CC(=O)N2CCC(F)(F)CC2)N(C)C(=O)[C@H](CCc2ccc(C(F)(F)F)c(Cl)c2)NC(=O)CN(C)C(=O)[C@H](CC2CCCCC2)N(C)C(=O)CN(C)C(=O)CN(C)C1=O [Compound 444] ([NMeL]I[Sar][Sar][NMeCha][Sar][hPhe(3-Cl-4-CF3)][NMeD](N(CH2CH2)2CF2)A[NMeV][NMeD]-Piperidide; lactam N-11) | 18 nM
CC[C@H](C)[C@@H]1NC(=O)[C@H](C)N(C)C(=O)C[C@@H](C(=O)N2CCCCC2)N(C)C(=O)[C@H](C(C)C)N(C)C(=O)C2(CCCC2)NC(=O)[C@@H]2CCCN2C(=O)[C@H](CCc2ccc(C(F)(F)F)c(Cl)c2)NC(=O)[C@H]2CCCN2C(=O)[C@H](CC2CCCCC2)N(C)C(=O)[C@@H]2CCN2C(=O)CN(C)C1=O [Compound 447] ([NMeA]I[Sar][Aze][NMeCha][dP][hPhe(3-Cl-4-CF3)]P[Ac5c][NMeV][NMeD]-Piperidide; lactam N-11) | 14 nM
CC[C@H](C)[C@@H]1NC(=O)[C@H](CC(C)C)N(C)C(=O)C[C@@H](C(=O)N2CCCCC2)N(C)C(=O)[C@H](C(C)C)N(C)C(=O)C2(CCOCC2)NC(=O)[C@@H]2CCCN2C(=O)[C@H](CCc2ccc(Cl)cc2)NC(=O)CN(C)C(=O)[C@H](CC2CCCCC2)N(C)C(=O)CN(C)C(=O)CN(C)C1=O [Compound 448] ([NMeL]I[Sar][Sar][NMeCha][Sar][hPhe(4-Cl)]P[Thp][NMeV][NMeD]-Piperidide; lactam N-11) | 91 nM
CC(C)C[C@H]1C(=O)N[C@@H](CC2CCC2)C(=O)N(C)CC(=O)N(C)CC(=O)N(C)[C@@H](CC2CCCCC2)C(=O)N(C)CC(=O)N[C@@H](CCc2ccc(C(F)(F)F)c(Cl)c2)C(=O)N2CCC[C@H]2C(=O)NC2(CCCC2)C(=O)N(C)[C@@H](C(C)C)C(=O)N(C)[C@H](C(=O)N2CCCCC2)CC(=O)N1C [Compound 451] ([NMeL][Cba][Sar][Sar][NMeCha][Sar][hPhe(3-Cl-4-CF3)]P[Ac5c][NMeV][NMeD]-Piperidide; lactam N-11) | 10 nM
CC[C@@H]1NC(=O)[C@H](Cc2cccc(I)c2)NC(=O)CN(C)C(=O)[C@H](Cc2ccc(Cl)cc2)N(C)C(=O)CN(C)C(=O)CN(C)C(=O)[C@H]([C@@H](C)CC)NC(=O)[C@H](CC(C)C)N(C)C(=O)C[C@@H](C(=O)N2CCCCC2)N(C)C(=O)[C@H](CC(C)C)NC(=O)C(C)(C)N(C)C1=O [Compound 457] ([NMeL]I[Sar][Sar][NMePhe(4-Cl)][Sar][Phe(3-I)][Abu][NMeAib]L[NMeD]-Piperidide; lactam N-11) | 69 nM
CC[C@H](C)[C@@H]1NC(=O)[C@H](CC(C)C)N(C)C(=O)C[C@@H](C(=O)N2CCCCC2)N(C)C(=O)[C@H](CC(C)C)NC(=O)C(C)(C)N(C)C(=O)[C@H](Cc2ccccc2OC)NC(=O)[C@H](Cc2cccc(I)c2)NC(=O)CN(C)C(=O)[C@H](Cc2ccc(C)cc2)N(C)C(=O)[C@@H]2CCN2C(=O)CN(C)C1=O [Compound 459] ([NMeL]I[Sar][Aze][NMePhe(4-Me)][Sar][Phe(3-I)][Phe(2-OMe)][NMeAib]L[NMeD]-Piperidide; lactam N-11) | 9.5 nM
CC[C@H](C)[C@@H]1NC(=O)[C@H](CC(C)C)N(C)C(=O)C[C@@H](C(=O)N2CCCCC2)N(C)C(=O)[C@H](C(C)C)N(C)C(=O)C(C)(C)NC(=O)[C@H](CC(=O)N2CCC(F)(F)CC2)N(C)C(=O)[C@H](CCc2ccc(C(F)(F)F)c(Cl)c2)NC(=O)CN(C)C(=O)[C@H](CC2CCCCC2)N(C)C(=O)CN(C)C(=O)CN(C)C1=O [Compound 463] ([NMeL]I[Sar][Sar][NMeCha][Sar][hPhe(3-Cl-4-CF3)][NMeD](N(CH2CH2)2CF2)[Aib][NMeV][NMeD]-Piperidide; lactam N-11) | 4.4 nM
CC[C@H](C)[C@@H]1NC(=O)[C@H](C2CCC2)N(C)C(=O)C[C@@H](C)NC(=O)[C@H](C(C)C)N(C)C(=O)C2(CCCC2)NC(=O)[C@@H]2CCCN2C(=O)[C@H](CCc2ccc(C(F)(F)F)c(Cl)c2)NC(=O)CN(C)C(=O)[C@H](CC2CCCCC2)N(C)C(=O)[C@@H]2CCN2C(=O)[C@H](C)N(C)C1=O [Compound 465] (cyclo([Ac5c][NMeV][d(β3hA)][NMeGly(cBu)]I[NMeA][Aze][NMeCha][Sar][hPhe(3-Cl-4-CF3)]P)) | 55 nM
CC[C@H](C)[C@@H]1NC(=O)[C@H](C)N(C)C(=O)C[C@@H](C(=O)N2CCCC2)NC(=O)[C@H](C(C)C)N(C)C(=O)[C@H](Cc2ccccc2)N(C)C(=O)[C@H](Cc2ccccc2)NC(=O)[C@H](Cc2cccc(C)c2)NC(=O)CN(C)C(=O)[C@H](Cc2ccc(Cl)cc2)N(C)C(=O)CN(C)C(=O)CN(C)C1=O [Compound 467] ([NMeA]I[Sar][Sar][NMePhe(4-Cl)][Sar][Phe(3-Me)]F[NMeF][NMeV]D-Pyrrolidide; lactam N-11) | 200 nM
CC[C@H](C)[C@@H]1NC(=O)[C@H](CC(C)C)N(C)C(=O)C[C@@H](C(=O)N2CCCCC2)N(C)C(=O)[C@H](C(C)C)N(C)C(=O)C2(CC2)NC(=O)[C@@H]2CCCN2C(=O)[C@H](CCc2ccc(C(F)(F)F)c(Cl)c2)NC(=O)CN(C)C(=O)[C@H](CC2CCCCC2)N(C)C(=O)CN(C)C(=O)CN(C)C1=O [Compound 468] ([NMeL]I[Sar][Sar][NMeCha][Sar][hPhe(3-Cl-4-CF3)]P[Ac3c][NMeV][NMeD]-Piperidide; lactam N-11) | 2.5 nM
CC[C@H](C)[C@@H]1NC(=O)[C@H](C)N(C)C(=O)C[C@@H](C(=O)N2CCCCC2)NC(=O)[C@H](CC(C)C)N(C)C(=O)[C@H](Cc2ccccc2)N(C)C(=O)[C@H](CC(C)C)NC(=O)[C@H](Cc2cccc(OC(F)(F)F)c2)NC(=O)CN(C)C(=O)[C@H](Cc2ccc(Cl)cc2)N(C)C(=O)CN(C)C(=O)CN(C)C1=O [Compound 473] ([NMeA]I[Sar][Sar][NMePhe(4-Cl)][Sar][X82]L[NMeF][NMeL]D-Piperidide; lactam N-11) | 410 nM
CC[C@H](C)[C@@H]1NC(=O)[C@H](CC(C)C)N(C)C(=O)C[C@@H](C(=O)N2CCCCC2)N(C)C(=O)[C@H](C2CCCCC2)N(C)C(=O)C2(CCCC2)NC(=O)[C@H](Cc2cncc(C)c2)N(C)C(=O)[C@H](CCc2ccc(C(F)(F)F)c(Cl)c2)NC(=O)CN(C)C(=O)[C@H](CC2CCCCC2)N(C)C(=O)[C@@H]2CCN2C(=O)CN(C)C1=O [Compound 477] ([NMeL]I[Sar][Aze][NMeCha][Sar][hPhe(3-Cl-4-CF3)][X17][Ac5c][NMeChg][NMeD]-Piperidide; lactam N-11) | 4.3 nM
CC[C@H](C)[C@@H]1NC(=O)[C@H](CC(C)C)N(C)C(=O)C[C@@H](C(=O)N2CCCCC2)N(C)C(=O)[C@H](C2CCCCC2)N(C)C(=O)C2(CCCC2)NC(=O)[C@H](Cc2ccc(C(F)(F)F)nc2)N(C)C(=O)[C@H](CCc2ccc(C(F)(F)F)c(Cl)c2)NC(=O)CN(C)C(=O)[C@H](CC2CCCCC2)N(C)C(=O)[C@@H]2CCN2C(=O)[C@H](C)N(C)C1=O [Compound 479] ([NMeL]I[NMeA][Aze][NMeCha][Sar][hPhe(3-Cl-4-CF3)][X12][Ac5c][NMeChg][NMeD]-Piperidide; lactam N-11) | 300 nM

From patent US12371454B2, “Cyclic peptide compound having Kras inhibitory action” (priority 2019, dated 2025)
